# Measured values: US6335322B1, “Therapeutic agents” (priority 1993, dated 2002)
# “Also recorded” adds a separate entry of the source. Where two headings read alike, the source gives them in different places.
# Key:
# [1] = system: glioblastoma taken from a patient; assay: Clonogenic agarose assay, glioblastoma biopsy; assay type: cell-based, human; details: FIGS. 1 and 2
# Procedure: A biopsy was taken from the patient and placed immediately in a growth medium. Tumour tissue was desegregated mechanically, and living cells were selected the chemotherapeutic test substance was added, BCNU (in water) and Ara-C and Ara-C esters (in micelles), and the cells were cultivated in a soft agarose medium. Twenty-four hours before termination of the cultures (7 days) ^3H Thymidin was added. The activity of the test substance is thus quantified as cpm in a scintillation counter.
# The results here are obtained with a glioblastoma taken from a patient. The same response pattern is found in 8 other glioblastoma biopsies. […] The results are given as % of the untreated control. A count of 50% (CD50) is taken as promising regarding use in therapy of this actual cancer line. What is worth nothing here is the 10^1.5 higher concentration of Ara-C needed to obtain CD50 as compared with elaidyl esters.
# [2] = system: brain metastasis of a melanoma; assay: Clonogenic agarose assay, melanoma brain metastasis biopsy; assay type: cell-based, human
# Procedure: A biopsy was taken from the patient and placed immediately in a growth medium. […] Twenty-four hours before termination of the cultures (7 days) ^3H Thymidin was added. The activity of the test substance is thus quantified as cpm in a scintillation counter.
# [3] = rat, in vivo
# Procedure: (§2) Plasma concentrations of total radioactivity and of the metabolites were determined at different timepoints. Tissue concentrations of total radioactivity were determined from a range of tissues at different timepoints up to 120 hours following injection. Liver tissues were extracted and metabolite concentrations were determined up to 72 hours post injection.
# [4] = system: Raji human B-lymphoma cells; assay: Raji leptomeningal carcinomatosis model in nude rats; assay type: in vivo; details: for mean day of death: 3 bolus injections on day 1, 2 and 4
# Procedure: The model used is a tumour model in nude rats for leptomeningal growth of tumours. 1×10^6 cells of the Bcell tumour line Raji were injected into the spinal fluid through cistema magna (c.m.). of 4-5 weeks old nude rats. […] Anaesthetised animals were treated intracerebrally with a 40 μl injection into cistema magna with 3 or 4 bolus injections. Treatment was started 1 day after cell inoculation.
# [5] = system: TLX/5 lymphoma; assay: Anti-tumour activity against murine TLX/5 lymphoma; assay type: in vivo, CBA mice; details: FIG. 16; for Maximum increase in lifespan: i.p. days 3-7, 6.25-50 mg/kg/day, median of 5; for doses at which active (increase in life span): i.p. treatment for 5 days
# Procedure: CBA mice weighing 20-25 g were inoculated subcutaneously inguinally with 1×10^5, TLX/5 tumour cells day 0. […] Doses were in the range 6.25-50 mg/kg/day. There were 5 mice per treatment per group and 10 tumour-bearing controls. Activity was assessed in terms of increase in life span (ILS) versus controls.
# [6] = system: A549 cells (human lung carcinoma); assay: Cell inactivation, colony forming ability, A549; assay type: cell-based; details: FIG. 9; exposed for 24 hours
# Procedure: (§1) Cell inactivation measured by means of loss of ability to form colonies was determined for several compounds. Cells used were of the established human cell lines of cancer cervix in situ origin, NHIK 3025, NHIK 3025/DDP, a cis-DDP-resistant variant of the same or A549 cells (human lung carcinoma). The cells were exposed to the test compound for 4 up till 24 hours. Test compounds were administered as micellar solution. Number of colonies were counted after about 12 days of incubation.
# The cells were exposed for 24 hours.
# [7] = Comparative pharmacokinetic, distribution, metabolism and excretion, i.v. to male rats; details: for Excretion of radioactivity: 14C-Ara-C-elaidate 5 mg/kg or 14C-Ara-C 2.4 mg/kg
# Procedure: as §2
# [8] = system: glioblastoma cell line U-118; assay: Glioblastoma U-118 subcutaneous tumour in nude mice, intratumoural injection
# Procedure: A glioblastoma cell line U-118 (Uppsala) tissue culture was injected subcutaneously in nude mice. A small part (2×2 mm) of growing tumour was transferred to new mice. […] Depending on the actual tumour size, the animals received the same relative amount of test substance. The control was given saline water. The growth rate was recorded as relative tumour volume (RTV).
# [9] = system: PV/2b/35 hemangiosarcoma cells; assay: Anti-tumour activity in SCID mice with hemangiosarcoma cells; assay type: in vivo; details: FIG. 17, 25 mg/kg/day
# Excerpt: SCID mice were inoculated intraperitoneally with PV/2b/35 hemangiosarcoma cells. […] Controls were empty micelles, DMSO or PBS respectively. The animals were not treated during weekends. Survival was the endpoint of the study.
# [10] = system: NFkappaB; assay: Activation of the cellular transcription factor NFkappaB (β-galactosidase reporter, SW480 cells); assay type: cell-based, human; details: FIG. 15; exposure 4 h
# Procedure: Human SW480 colon adenocarcinoma cells stably transfected with a CMV promotor/enhancer containing the gene for β-galactosidase were used. Activation of the transcription factor NFkappaB results in enhanced amount of the enzyme β-galactosidase in cytoplasma. The amount of β-galactosidase is quantified using optical density at 570 nm as parameter. The […] cells were incubated 2-3 days before exposure to the test compound for 4 h. The cells were washed and prepared, and optical density recorded for the different compounds.
# [11] = system: Molt 4 human lymphoma cells; assay: Molt 4 leptomeningal carcinomatosis model in nude rats; assay type: in vivo; details: FIG. 12; treated 4x in cisterna magna
# Procedure: The model used is a tumour model in nude rats for leptomeningal growth of tumours. 10^6 cells of the T-cell tumour line Molt 4 were injected into the spinal fluid through cistema magna (c.m.) of 4-5 weeks old nude rats. The animals develop neurological symptoms after 20-22 days if untreated. Anaesthetised animals were treated intracerebrally with a 40 μl injection into cistema magna with 4 bolus injections. Treatment was started 1 day after cell inoculation. Test compounds were Ara-C-5′-elaidyl ester (in micelles) and Ara-C. Ara-C was administered both at maximal tolerable dose (MTD) and at an equimotar dose to Ara-C-5′-elaidyl ester. Control animals (treated with NaCl) developed symptoms from the central nervous system after approximately 20 days.
# [12] = system: Raji human B-lymphoma cells; assay: Leukaemia model using Raji cells in SCID mice; assay type: in vivo
# Procedure: SCID mice were injected intravenously with 1×10^6 Raji human B-lymphoma cells. […] Animals develop paralysis of the hind legs as a result of the tumour growth.
# [13] = system: NHIK 3025/DDP cells; assay: Cell inactivation, colony forming ability, NHIK 3025/DDP; assay type: cell-based, human; details: FIG. 8; 4 h treatment
# Procedure: as §1
# The results here are obtained with 4 h treatment of NHIK 3025/DDP cells.
smiles,measurement,setting,value
"O=NN(CCCl)C(=O)NCCCl [BCNU, N,N-cis(2-chloroethyl)N-nitroso-urea]","concentration needed to obtain CD50, times higher than with the Ara-C esters",[1],about 10 times
same,concentration needed to obtain CD50 compared to Ara-C alone,[1],reasonably comparable
same,higher concentration to give CD50 compared to the Ara-C esters,[2]; FIG. 4,more than 1×10^2
"Nc1ccn([C@@H]2O[C@H](CO)[C@@H](O)[C@@H]2O)c(=O)n1 [Ara-C, 1-β-D-arabinofuranosylcytosine, reference compound]",time up to which Ara-C is detectable in plasma,[3]; male,24 h
same,liver concentration of Ara-C,"[3]; male, 4 h",non-detectable levels after 4 hours
same,plasma levels of both Ara-C and Ara-U,"[3]; male, 48 h",below the assay limit of detection at 48 h
same,proportion of the dose in whole-blood,"[3]; male, iv, 0.08 h",7.76%
same,mean day of death,[4]; FIG. 10,13 days
same,effect on survival,"[4]; FIG. 11, 4 bolus doses day 1-4, Ara-C at MTD and at dose equimolar to Ara-C-elaidate",void of activity; also recorded: no effects
same,Maximum increase in lifespan,[5],32.7%
same,doses at which active (increase in life span),[5],only active at the dose 25 mg/kg
same,difference (CD50 concentration) between Ara-C and the 3′- and 5′-elaidyl esters,[2]; FIG. 3,~10 times
CCCCCCCCCCCC=CCCCCC(=O)OCC1OC(n2ccc(N)nc2=O)C(O)C1O (stereo not drawn) [Ara-C-5′-petroseline ester],inactivation (colony forming ability) compared to Ara-C,[6],enhanced effect
"CCCCCCCC/C=C/CCCCCCCC(=O)OC[C@H]1O[C@@H](n2ccc(N)nc2=O)[C@@H](O)[C@@H]1O [Ara-C-elaidate, 5′-O-(Elaidoyl) 1-β-D-arabinofuranosylcytosine]",initial whole blood and plasma concentration compared to Ara-C,[3],higher
same,maximal concentrations compared to Ara-C,[3],lower
same,maximal concentrations in most tissues compared to Ara-C,[3],notably higher and occurred at later timepoints
same,plasma levels of both Ara-C and Ara-U,[3],can still be quantified at 72 h
same,tissue concentration of total radioactivity compared to 14C-Ara-C,[3],higher at all timepoints up to 120 hours
same,concentration of active drug in RES tissues compared to Ara-C,[3]; iv,significantly higher
same,elimination from tissues compared to 14C-Ara-C,[3]; iv,much slower
same,tissue distribution compared to Ara-C,[3]; iv,significantly altered
same,Excretion of radioactivity,"[7]; 0-6 hours, i.v. male rats",59.1 ± 3.7 % of dose
same,Excretion of radioactivity,"[7]; 6-24 hours, i.v. male rats",34.1 ± 2.5 % of dose
same,Excretion of radioactivity,"[7]; 24-48 hours, i.v. male rats",2.7 ± 0.8 % of dose
same,Excretion of radioactivity,"[7]; 48-72 hours, i.v. male rats",0.5 ± 0.1 % of dose
same,Excretion of radioactivity,"[7]; 72-96 hours, i.v. male rats",0.2 ± 0.1 % of dose
same,detection of metabolite Ara-U in liver,[7]; FIG. 19,no detection of Ara-U up to 24 hours
same,time a therapeutic significant Ara-C level is sustained in liver,"[7]; FIG. 19, after dosing the ester",at least 72 h
same,time up to which Ara-C is detectable in plasma,[7]; FIG. 20,72 h
same,metabolism of Ara-C to Ara-U,"[7]; FIG. 20, plasma","less extensive, and starts later"
same,rate of excretion of radioactivity in urine compared to 14C-Ara-C,[7]; Table 2,slower
same,proportion of the dose in whole-blood,[7]; at 0.08 hours after i.v. administration,64.7%
same,excretion via the renal system compared to Ara-C,[7]; i.v. male rats,much slower
same,conversion to Ara-U compared to Ara-C,[7]; table 1 and FIG. 20,slower
same,inactivation (colony forming ability) compared to Ara-C,[6],enhanced effect
same,CNS disturbance,"[8]; FIG. 18, intratumoural injection",nor was there noted any sign of CNS disturbance
same,tumour growth (relative tumour volume),"[8]; FIG. 18, intratumoural injection of 10 mg/ml micellar solution",complete stop in tumour growth
same,toxic side effects,"[8]; mouse, in vivo",no signs of toxic side effects
same,survival,[9]; 5 days per week,greatly enhanced
same,survival compared to control,[9]; dissolved in DMSO,enhanced survival compared to control
same,survival compared to control,[9]; prepared in micelles,enhanced survival compared to control
same,increase of symptom free latency period as compared to Ara-C,"[4]; FIG. 10, 3 bolus injections into cisterna magna on day 1, 2 and 4",135%
same,mean day of death,[4]; FIG. 10,30.5 days
same,survival of one rat (considered cured),"[4]; FIG. 10, 3 bolus injections, no tumours at necropsy day 76",more than 70 days
same,rats still alive and symptom-free at day 70,"[4]; FIG. 11, 4 daily bolus doses day 1-4 into cisterna magna",3 out of 5
same,Maximum increase in lifespan,[5],47.2%
same,doses at which active (increase in life span),[5],active at the doses 12.5 mg/kg and 25 mg/kg
same,"β-galactosidase activity (optical density at 570 nm), NFkappaB activation",[10],substantial increase in β-galactosidase activity
same,onset of death compared to Ara-C or control,[11],delayed
same,fraction of the molar dose of Ara-C giving similar anti-cancer effects,[12]; FIG. 13,1/20
same,mean survival,"[12]; FIG. 13, i.v. days 7, 9, 11, 13, 15, 20 mg/kg Ara-C-elaidate vs 200 mg/kg Ara-C",increased mean survival compared to control and Ara-C treated animals
same,mean survival time,"[12]; FIG. 14, i.p. once daily days 7-11, versus every other day",greatly prolonged
same,effect on colony forming ability compared to Ara-C,[13],Enhanced effect
CCCCCCCCCCCCCCCCCC(=O)OCC1OC(n2ccc(N)nc2=O)C(O)C1O (stereo not drawn) [Ara-C-5′-stearyl ester],inactivation (colony forming ability) compared to Ara-C,[6],highest inactivation
